For the experiment, the system named is Mycobacterium tuberculosis. Nature of the experiment: Antimycobacterial activity against Mycobacterium tuberculosis H37Rv. In kind it is functional, organism-based.

Activity calls are given as the source filed them. The rule behind the calls is not given here.

In ChEMBL document CHEMBL1142097, “EthA, a common activator of thiocarbamide-containing drugs acting on different mycobacterial targets” (Antimicrob Agents Chemother, 2007) one finds Activity data, which are given here for one compound.

On to `COc1ccc(/C(C)=N/NC(N)=S)cc1`, for which the result was Active.
